Results: patent US6645982B2, “Crystal forms of 6-[(4-chloro-phenyl)-hydroxy-(3-methyl-3H-imidazol-4-yl)-methyl]-4-(3-ethynyl-phenyl)-1-methyl-1H-quinolin-2-one, 2,3-dihydroxybutanedioate salts and method of production” (Pfizer Inc, priority 2000, dated 2003)

Assay: solubility in gastric fluids
Format: physicochemical
Conditions: compared to other salts of the compound of formula I, i.e., HCl

C#Cc1cccc(-c2cc(=O)n(C)c3ccc(C(O)(c4ccc(Cl)cc4)c4cncn4C)cc23)c1.O=C(O)C(O)C(O)C(=O)O (stereo not shown) [6-[(4-chloro-phenyl)-hydroxy-(3-methyl-3H-imidazol-4-yl)-methyl]-4-(3-ethynyl-phenyl)-1-methyl-1H-quinolin-2-one, 2,3-dihydroxybutanedioate (1:1)]
solubility in gastric fluids: improved solubility
